Results reported in patent publication US6469028B1, “Synthesis and use of retinoid compounds having negative hormone and/or anatgonist activities” (Allergan, Inc., priority 1995, dated 2002).

Columns and labels:
Test in all cases: Holoreceptor transactivation assay
Type in all cases: cell-based
RARγ = molecular target: T1, RARγ (Homo sapiens, UniProt P13631); design: expressed in transfected cells; host or cells: CV1 cells; details: relative to all trans retinoic acid; read-out: Transactivation Assay Efficacy (% of RA activity) RARγ
T1 sequence (P13631 1-454): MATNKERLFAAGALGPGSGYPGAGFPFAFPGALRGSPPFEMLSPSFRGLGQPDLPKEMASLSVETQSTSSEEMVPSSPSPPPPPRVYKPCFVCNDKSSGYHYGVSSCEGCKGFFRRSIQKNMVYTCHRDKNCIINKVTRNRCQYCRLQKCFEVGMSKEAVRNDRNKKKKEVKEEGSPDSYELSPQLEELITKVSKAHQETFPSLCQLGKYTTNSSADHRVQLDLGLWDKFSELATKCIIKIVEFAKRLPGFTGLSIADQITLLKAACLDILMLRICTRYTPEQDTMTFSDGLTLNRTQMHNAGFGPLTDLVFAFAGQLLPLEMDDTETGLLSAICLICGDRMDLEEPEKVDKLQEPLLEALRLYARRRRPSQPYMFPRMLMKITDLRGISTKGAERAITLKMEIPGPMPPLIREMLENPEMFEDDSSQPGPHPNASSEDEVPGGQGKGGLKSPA
From the text: (§1) A holoreceptor transactivation assay and a ligand binding assay which measure the antagonist/agonist like activity of the compounds of the invention, or their ability to bind to the several retinoid receptor subtypes, respectively, are described in published PCT Application No. WO93/11755 (particularly on pages 30-33 and 37-41) published on Jun. 24, 1993, the specification of which is also incorporated herein by reference. A description of the holoreceptor transactivation assay is also provided below.
(§2) CV1 cells (5,000 cells/well) were transfected with an RAR reporter plasmid MTV-TREp-LUC (50 ng) along with one of the RAR expression vectors (10 ng) in an automated 96-well format by the calcium phosphate procedure of Heyman et al. Cell 68: 397-406. For RXR-α and RXR-γ transactivation assays, an RXR-responsive reporter plasmid CRBPII-tk-LUC (50 ng) along with the appropriate RXR expression vectors (10 ng) was used substantially as described by Heyman et al. above, and Allegretto et al. J. Biol. Chem. 268: 26625-26633. For RXR-β transactivation assays, an RXR-responsive reporter plasmid CPRE-tk-LUC ([…]) along with RXR-β expression vector ([…]) was used as described in above. These reporters contain DRI elements from human CRBPII and certain DRI elements from promotor, respectively (see Mangelsdorf et al. The Retinoids: Biology Chemistry and Medicine, pp. 319-349, Raven Press Ltd., New York and Heyman et al., cited above). A β-galactosidase (50 ng) expression vector was used as an internal control in the transfections to normalize for variations in transfection efficiency. The cells were transfected in triplicate for 6 hours, followed by incubation with retinoids for 36 hours, and the extracts were assayed for luciferase and […] activities. The detailed experimental procedure for holoreceptor transactivations has been described in Heyman et al. above, and Allegretto et al. cited above. The results obtained in this assay are expressed in EC50 numbers, as they are also in the chimeric receptor transactivation assay. The Heyman et al. Cell 68: 397-406, Allegretto et al. J. Biol. Chem. 268: 26625-26633, and Mangelsdorf et al. The Retinoids: Biology, Chemistry, and Medicine, pp. 319-349, Raven Press Ltd., New York, are expressly incorporated herein by reference. The results of ligand binding assay are expressed in Kd numbers. (See Cheng et al. Biochemical Pharmacology 22: 3099-3108, expressly incorporated herein by reference.)
(§3) A compound should not cause significant activation of a reporter gene through a given receptor subtype (RAR-α, RAR-β or RAR-γ) in the holoreceptor transactivation assay, in order to qualify as an RAR antagonist with utility in the present invention.

RARβ = molecular target: T2, RARβ (Homo sapiens, UniProt P10826); design: expressed in transfected cells; host or cells: CV1 cells; details: relative to all trans retinoic acid; read-out: Transactivation Assay Efficacy (% of RA activity) RARβ
T2 sequence (P10826 1-448 isoform P10826-2): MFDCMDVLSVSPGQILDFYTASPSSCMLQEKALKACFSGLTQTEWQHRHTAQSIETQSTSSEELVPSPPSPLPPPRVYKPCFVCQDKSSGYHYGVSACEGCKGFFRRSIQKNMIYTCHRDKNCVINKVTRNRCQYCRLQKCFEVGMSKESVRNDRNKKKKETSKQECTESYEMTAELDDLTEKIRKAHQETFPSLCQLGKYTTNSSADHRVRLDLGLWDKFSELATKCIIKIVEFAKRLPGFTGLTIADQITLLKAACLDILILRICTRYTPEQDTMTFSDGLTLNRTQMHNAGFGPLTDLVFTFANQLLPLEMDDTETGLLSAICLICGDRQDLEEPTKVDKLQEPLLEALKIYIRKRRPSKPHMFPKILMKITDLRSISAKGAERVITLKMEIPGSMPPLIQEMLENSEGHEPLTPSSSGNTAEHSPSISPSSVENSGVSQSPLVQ
From the text: as §1, §2, §3

RARα = molecular target: T3, RARα (Homo sapiens, UniProt P10276); design: expressed in transfected cells; host or cells: CV1 cells; details: relative to all trans retinoic acid; read-out: Transactivation Assay Efficacy (% of RA activity) RARα
T3 sequence (P10276 1-462): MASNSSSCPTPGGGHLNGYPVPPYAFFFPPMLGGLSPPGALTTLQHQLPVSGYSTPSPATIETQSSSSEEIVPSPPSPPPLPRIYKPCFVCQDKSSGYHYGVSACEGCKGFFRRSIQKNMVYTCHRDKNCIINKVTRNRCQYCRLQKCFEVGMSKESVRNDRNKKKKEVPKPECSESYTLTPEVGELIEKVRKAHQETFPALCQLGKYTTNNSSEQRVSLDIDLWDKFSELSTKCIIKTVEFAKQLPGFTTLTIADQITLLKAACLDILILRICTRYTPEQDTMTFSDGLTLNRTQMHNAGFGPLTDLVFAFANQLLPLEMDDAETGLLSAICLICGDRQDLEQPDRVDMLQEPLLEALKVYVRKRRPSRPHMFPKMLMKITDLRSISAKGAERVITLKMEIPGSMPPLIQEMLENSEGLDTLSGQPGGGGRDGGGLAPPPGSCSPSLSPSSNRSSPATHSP
From the text: as §1, §2, §3

RXRβ = details: relative to all trans retinoic acid
From the text: as §1, §2

Row | SMILES | Emax (RARγ) [%] | Emax (RARβ) [%] | Emax (RARα) [%] | Transactivation Assay Efficacy (% of RA activity) RXRβ (RXRβ)
1 | CC1(C)CC=C(c2ccccn2)c2cc(C#Cc3ccc(C(=O)O)cc3)ccc21 [Compound 19, 4-[(5,6-Dihydro-5,5-dimethyl-8-(2-pyridyl)-2-naphthalenyl)ethynyl]benzoic acid] | 3 | 5 | 0 | 9.0 % of RA activity
2 | CCc1ccc(C2=CCC(C)(C)c3ccc(C#Cc4ccc(C(=O)O)cc4)cc32)cc1 [Compound 21, 4-[(5,6-Dihydro-5,5-dimethyl-8-(4-ethylphenyl)-2-naphthalenyl)ethynyl]benzoic acid] | 2 | 2 | 2 | 0.00 % of RA activity
3 | COc1ccc(C2=CCC(C)(C)c3ccc(C#Cc4ccc(C(=O)O)cc4)cc32)cc1 [Compound 22, 4-[(5,6-Dihydro-5,5-dimethyl-8-(4-methoxyphenyl)-2-naphthalenyl)ethynyl]benzoic acid] | 2 | 0 | 0 | 0.00 % of RA activity
4 | CC1(C)CC=C(c2ccc(C(F)(F)F)cc2)c2cc(C#Cc3ccc(C(=O)O)cc3)ccc21 [Compound 23, 4-[(5,6-Dihydro-5,5-dimethyl-8-(4-trifluoromethylphenyl)-2-naphthalenyl)ethynyl]benzoic acid] | 3 | 6 | 0 | 0.00 % of RA activity
5 | Cc1cc(C)cc(C2=CCC(C)(C)c3ccc(C#Cc4ccc(C(=O)O)cc4)cc32)c1 [Compound 24, 4-[(5 6-Dihydro-5,5-dimethyl-8-(3,5-dimethylphenyl)-2-naphthalenyl)ethynyl]benzoic acid] | 4 | 7 | 3 | 0.00 % of RA activity
6 | CC1(C)CC=C(c2ccc(Cl)cc2)c2cc(C#Cc3ccc(C(=O)O)cc3)ccc21 [Compound 25, 4-[(5,6-Dihydro-5,5-dimethyl-8-(4-chlorophenyl)-2-naphthalenyl)ethynyl]benzoic acid] | 3 | 3 | 2 | 0.00 % of RA activity
7 | CC1(C)CC=C(c2cccc(O)c2)c2cc(C#Cc3ccc(C(=O)O)cc3)ccc21 [Compound 28, 4-[(5,6-Dihydro5,5-dimethyl-8-(3-hydroxyphenyl)-2-naphthalenyl)ethynyl]benzoic acid] | 2 | 10 | 2 | 0.00 % of RA activity
8 | CC1(C)CC=C(c2ccc(O)cc2)c2cc(C#Cc3ccc(C(=O)O)cc3)ccc21 [Compound 29, 4-[(5,6-Dihydro-5,5-dimethyl-8-(4-hydroxyphenyl)-2-naphthalenyl)ethynyl]benzoic acid] | 11 | 6 | 0 | 6.00 % of RA activity

Further lines, with some results ahead:

Row | Emax (RARγ) [%] | Emax (RARβ) [%] | Emax (RARα) [%] | SMILES | Transactivation Assay Efficacy (% of RA activity) RXRβ (RXRβ)
9 | 0 | 1 | 4 | Cc1ccc(C2=CCC(C)(C)c3ccc(C#Cc4ccc(C(=O)O)cc4)cc32)cn1 [Compound 18, 4-[(5,6-Dihydro-5,5-dimethyl-8-(2-methyl-5-pyridyl)-2-naphthalenyl)ethynyl]benzoic acid] | 10.00 % of RA activity
10 | 0 | 4 | 3 | Cc1cccc(C2=CCC(C)(C)c3ccc(C#Cc4ccc(C(=O)O)cc4)cc32)c1 [Compound 20, 4-[(5,6-Dihydro-5,5-dimethyl-8-(3-methylphenyl)-2-naphthalenyl)ethynyl]benzoic acid] | 0.00 % of RA activity
11 | 0 | 6 | 1 | CC1(C)CC=C(c2cccnc2)c2cc(C#Cc3ccc(C(=O)O)cc3)ccc21 [Compound 26, 4-[(5,6-Dihydro-5,5-dimethyl-8-(3-pyridyl)-2-naphthalenyl)ethynyl]benzoic acid] | 0.00 % of RA activity
12 | 6 | 14 | 9 | Cc1ccccc1C1=CCC(C)(C)c2ccc(C#Cc3ccc(C(=O)O)cc3)cc21 [Compound 27, 4-[(5,6-Dihydro-5,5-dimethyl-8-(2-methylphenyl)-2-naphthalenyl)ethynyl]benzoic acid] | 0.00 % of RA activity
13 | 1 | 5 | 3 | Cc1cnc(C2=CCC(C)(C)c3ccc(C#Cc4ccc(C(=O)O)cc4)cc32)s1 [Compound 30, 4-[(5,6-Dihydro-5,5-dimethyl-8-(5-methylthiazol-2-yl)-2-naphthalenyl)ethynyl]benzoic acid] | 9.00 % of RA activity
14 | 2 | 14 | 4 | Cc1csc(C2=CCC(C)(C)c3ccc(C#Cc4ccc(C(=O)O)cc4)cc32)n1 [Compound 31, 4-[(5,6-Dihydro-5,5-dimethyl-8-(4-methylthiazol-2-yl)-2-naphthalenyl)ethynyl]benzoic acid] | 8.00 % of RA activity
15 | 2 | 2 | 0 | Cc1nc(C2=CCC(C)(C)c3ccc(C#Cc4ccc(C(=O)O)cc4)cc32)sc1C [Compound 32] | 0.00 % of RA activity
